Consider 24 compounds from patent US10968232B2 (Merck Sharp & Dohme Corp., priority 2016, dated 2021).

Structures are written as SMILES. Where only a bound is given, the exact number is not on record here.

In the test the target is T1, human GPR40 (Homo sapiens, UniProt O14842).
T1 construct: expressed in transfected cells
T1 sequence (O14842 whole entry): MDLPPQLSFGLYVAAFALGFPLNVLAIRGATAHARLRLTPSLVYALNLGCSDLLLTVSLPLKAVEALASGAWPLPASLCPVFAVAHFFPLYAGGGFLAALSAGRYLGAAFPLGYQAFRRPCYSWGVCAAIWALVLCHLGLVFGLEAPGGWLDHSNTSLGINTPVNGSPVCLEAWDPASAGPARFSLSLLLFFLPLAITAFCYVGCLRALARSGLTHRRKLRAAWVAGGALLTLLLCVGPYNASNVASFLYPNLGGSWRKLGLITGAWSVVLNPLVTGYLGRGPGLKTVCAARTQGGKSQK
Put plainly: Inositol Phosphate Turnover (IP1) Assay. It counts as cell-based. Particulars: HEK cells stably expressing human GPR40; CisBio IP-One kit; 60 minutes at 37 degrees; read-out: Human IP1 EC50. The protocol: Human GPR40 stable cell-lines were generated in HEK cells. The expression plasmids were transfected using lipofectamine (Life Technologies) following manufacturer's instructions. Stable cell-lines were generated following drug selection and single cell cloning. The assay was performed in 384-well format. HEK cells stably expressing human GPR40 were plated at 7500 cells per well in growth medium (DMEM/10% fetal calf serum). Cell plates were then incubated 16 hours at 37 degrees in a 5% CO2 incubator. Measurement of Inositol Phosphate Turnover (IP1) was performed using the CisBio IP-One kit (Part number 62IPAPEB). After the 16 hour incubation, the growth media was removed by centrifugation using the BlueWasher (AusWasher GUI Ver. v1.0.1.8) Protocol #21-“Light Dry” and 10 ul of stimulation buffer (prepared as described in the kit) was added to each well. In a separate plate, compounds were diluted in DMSO (200-fold over the final concentration in the assay well) and 50 nl was acoustically transferred to the appropriate well in the assay cell plate. The plates were then incubated for 60 minutes at 37 degrees in a 5% CO2 incubator. 10 ul of detection buffer (also prepared as described in the IP-One kit) was added to each well and the plates were incubated at room temperature for 60 minutes in the dark. The plates were then read in a Perkin Elmer EnVision or equivalent reader able to measure FRET. […] Data was normalized to % activity using a reference compound and EC50s determined using a standard 4-parameter fit.
As usually defined, the EC50 is the midpoint of the concentration-response curve. Take `C[C@H](C(=O)O)[C@H](c1ccc2c(c1)OC1(CC2)CCC(Nc2ncccc2C(F)(F)F)CC1)C1CC1` (single isomer, unassigned) [Example 68]: the EC50 came to 0.41 nM.

On to `C[C@H](C(=O)O)[C@H](c1ccc2c(c1)OC1(CC2)CC(Nc2ncccc2C(F)(F)F)C1)C1CC1` (single isomer, unassigned) [Example 87], for which the concentration for a half-maximal effect (EC50) is 15.3 nM. As for `C[C@H](C(=O)O)[C@H](c1ccc2c(c1)OC1(CC2)CCN(Cc2cc(C#N)ccc2C(F)(F)F)CC1)C1CC1` [Example 60, (2S,3R)-3-(1′-(5-cyano-2-(trifluoromethyl)benzyl)spiro[chroman-2,4′-piperidin]-7-yl)-3-cyclopropyl-2-methylpropanoic Acid], the figure is 17.3 nM; as for `C[C@H](C(=O)O)[C@H](c1ccc2c(c1)OC1(CC2)CCN(Cc2cc(C#N)ccc2OC(F)(F)F)CC1)C1CC1` [Example 124, (2S,3R)-3-(1′-(5-cyano-2-(trifluoro-methoxy)-benzyl)spiro[chroman-2,4′-piperidin]-7-yl)-3-cyclopropyl-2-methylpropanoic acid], 64.1 nM; as for `C[C@H](C(=O)O)[C@H](c1ccc2c(c1F)OC1(CC2)CCN([C@H](C)c2cc(C(F)(F)F)ccc2Cl)CC1)C1CC1` (mixture of isomers) [Example 12, (2S,3R)-3-(1′-((RS)-1-(2-chloro-5-(trifluoro-methyl)phenyl)ethyl)-8-fluorospiro[chroman-2,4′-piperidin]-7-yl)-3-cyclopropyl-2-methylpropanoic acid], 995 nM. For `C[C@H](C(=O)O)[C@H](c1ccc2c(c1F)OC1(CC2)CCN(Cc2cc(Cl)ccc2OC(F)(F)F)CC1)C1CC1` [Example 4, (2S,3R)-3-(1′-(5-chloro-2-(trifluoromethoxy)benzyl)-8-fluorospiro[chroman-2,4′-piperidin]-7-yl)-3-cyclopropyl-2-methylpropanoic Acid] the value was 8.06 nM; for `CC(c1cc(F)cc(F)c1Cl)N1CCC2(CCc3ccc([C@H](C4CC4)[C@H](C)C(=O)O)c(F)c3O2)CC1` (single isomer, unassigned) [Example 17, (2S,3R)-3-(1′-((S or R)-1-(2-chloro-3,5-difluorophenyl)ethyl)-8-fluorospiro-[chroman-2,4′-piperidin]-7-yl)-3-cyclopropyl-2-methylpropanoic Acid], 37.3 nM. For `C[C@H](C(=O)O)[C@H](c1ccc2c(c1)OC1(CC2)CCN(Cc2cc(C(F)(F)F)cc(Cl)c2F)CC1)C1CC1` [Example 24, (2S,3R)-3-(1′-(3-chloro-2-fluoro-5-(trifluoromethyl)benzyl)spiro[chroman-2,4′-piperidin]-7-yl)-3-cyclopropyl-2-methylpropanoic Acid] the value was 11.2 nM; for `C[C@H](C(=O)O)[C@H](c1ccc2c(c1)OC1(CCCN([C@H](C)c3cc(C(F)(F)F)ccc3C(F)(F)F)C1)CC2)C1CC1` (single isomer, unassigned) [Example 73, (2S,3R)-3-((R or S)-1′-((R)-1-(2,5-bis(trifluoromethyl)phenyl)ethyl)spiro-[chroman-2,3′-piperidin]-7-yl)-3-cyclopropyl-2-methylpropanoic Acid], 186 nM.

`C[C@H](C(=O)O)[C@H](c1ccc2c(c1)OC1(CC2)CC(N(C)c2ncccc2C(F)(F)F)C1)C1CC1` (stereo partly drawn) [Example 89, (2S,3R)-3-cyclopropyl-2-methyl-3-(3′-(methyl(3-(trifluoromethyl)pyridin-2-yl)amino)spiro[chroman-2,1′-cyclobutan]-7-yl)propanoic Acid]: the EC50 amounted to 13.1 nM.

Take `C[C@H](C(=O)O)[C@H](c1ccc2c(c1)OC1(CCCN(Cc3cc(C(F)(F)F)ccc3C(F)(F)F)CC1)CC2)C1CC1` (single isomer, unassigned) [Example 47, (2S,3R)-3-((R or S)-1-(2,5-bis(trifluoromethyl)benzyl)spiro[azepane-4,2′-chroman]-7′-yl)-3-cyclopropyl-2-methylpropanoic Acid]: the EC50 was determined as 2.64 nM. For `C[C@H](C(=O)O)[C@H](c1ccc2c(c1)OC1(CCCN(Cc3cc(C(F)(F)F)ccc3C(F)(F)F)CC1)CC2)C1CC1` (single isomer, unassigned) [Example 48, sodium (2S,3R)-3-((R or S)-1-(2,5-bis (trifluoromethyl)benzyl)spiro[azepane-4,2′-chroman]-7′-yl)-3-cyclopropyl-2-methyl-propanoate] the value was 1.06 nM; for `Cc1nocc1-c1ccc(OC(F)(F)F)c(C(C)N2CCC3(CCc4ccc([C@H](C5CC5)[C@H](C)C(=O)O)cc4O3)CC2)c1` (single isomer, unassigned) [Example 116, (2S,3R)-3-cyclopropyl-2-methyl-3-(1′-((R or S)-1-(5-(3-methylisoxazol-4-yl)-2-(trifluoromethoxy)phenyl)eth-yl)spiro[chroman-2,4′-piperidin]-7-yl)propanoic acid], 323 nM.

Consider `Cc1ccc(-c2ccc(OC(F)(F)F)c(C(C)N3CCC4(CCc5ccc([C@H](C6CC6)[C@H](C)C(=O)O)cc5O4)CC3)c2)o1` (mixture of isomers) [Example 122, (2S,3R)-3-cyclopropyl-2-methyl-3-(1′-((RS)-1-(5-(5-methylfuran-2-yl)-2-(trifluoromethoxy)phenyl)eth-yl)spiro[chroman-2,4′-piperidin]-7-yl)propanoic acid], for which the EC50 came to 42.5 nM.

Take `C[C@H](C(=O)O)[C@H](c1ccc2c(c1)OC1(CC2)CCN(Cc2cc(C3CC3)ccc2OC(F)(F)F)CC1)C1CC1` [Example 76, (2S,3R)-3-cyclopropyl-3-(1′-(5-cyclopropyl-2-(trifluoromethoxy)benzyl)spiro[chroman-2,4′-piperidin]-7-yl)-2-methylpropanoic Acid]: the EC50 was found to be 11.7 nM. For `Cc1noc(C)c1-c1ccc(OC(F)(F)F)c(C(C)N2CCC3(CCc4ccc([C@H](C5CC5)[C@H](C)C(=O)O)cc4O3)CC2)c1` (stereo partly drawn) [Example 121, (2S,3R)-3-cyclopropyl-3-(1′-(1-(5-(3,5-dimethylisoxazol-4-yl)-2-(trifluoro-methoxy)phenyl)ethyl)spiro [chroman-2,4′-piperidin]-7-yl)-2-methyl-propanoic acid] the value was 110 nM; for `C[C@H](C(=O)O)[C@H](c1ccc2c(c1)OC1(CC2)CC(Nc2ncccc2C(F)(F)F)C1)C1CC1` (single isomer, unassigned) [Example 88], 57 nM; for `CC(c1cc(Cl)ccc1OCC(F)(F)F)N1CCC2(CCc3ccc([C@H](C4CC4)[C@H](C)C(=O)O)cc3O2)CC1` (single isomer, unassigned) [Example 62, (2S,3R)-3-(1′-((R or S)-1-(5-chloro-2-(2,2,2-trifluoroethoxy)phenyl)ethyl)spiro [chroman-2,4′-piperidin]-7-yl)-3-cyclopropyl-2-methylpropanoic Acid], 386 nM.

`C[C@H](C(=O)O)[C@H](c1ccc2c(c1)OC1(CC2)CCN(c2ccc3nc(C(F)(F)F)cn3n2)CC1)C1CC1` [Example 71, (2S,3R)-3-cyclopropyl-2-methyl-3-(1′-(2-(trifluoromethyl)imidazo[1,2-b]-pyridazin-6-yl)spiro[chroman-2,4′-piperidin]-7-yl)propanoic Acid]: the EC50 is 545 nM.

In the case of `CC(c1cc(OC(F)(F)F)ccc1F)N1CCC2(CCc3ccc([C@H](C4CC4)[C@H](C)C(=O)O)cc3O2)CC1` (mixture of isomers) [Example 29, (2S,3R)-3-cyclopropyl-3-(1′-((RS)-1-(2-fluoro-5-(trifluoromethoxy)phenyl)ethyl)spiro[chroman-2,4′-piperidin]-7-yl)-2-methylpropanoic acid], the EC50 amounted to 115 nM.

As to `C[C@H](C(=O)O)[C@H](c1ccc2c(c1)OC1(CC2)CCN([C@@H](C)c2cc(C(F)(F)F)ccc2C(F)(F)F)CC1)C1CC1` [Example 131, Sodium (2S,3R)-3-(1′-((S)-1-(2,5-bis(trifluoromethyl)phenyl)ethyl)spiro[chromane-2,4′-piperidin]-7-yl)-3-cyclopropyl-2-methylpropanoate], the EC50 was over 1000 nM. As for `Cc1ccc(OC(F)(F)F)c(CN2CCC3(CCc4ccc([C@H](C5CC5)[C@H](C)C(=O)O)cc4O3)CC2)c1` [Example 77, (2S,3R)-3-cyclopropyl-2-methyl-3-(1′-(5-methyl-2-(trifluoromethoxy)benzyl)spiro[chroman-2,4′-piperidin]-7-yl)propanoic acid], the figure is 23.4 nM; as for `C[C@H](C(=O)O)[C@H](c1ccc2c(c1)OC1(CC2)CCC(Nc2ncccc2C(F)(F)F)CC1)C1CC1` (single isomer, unassigned) [Example 65], 28 nM; as for `C[C@H](C(=O)O)[C@H](c1ccc2c(c1)OC1(CC2)CC(N(C)c2ncccc2C(F)(F)F)C1)C1CC1` (stereo partly drawn) [Example 90, (2S,3R)-3-cyclo-propyl-2-methyl-3-(3′-(methyl(3-(trifluoro-methyl)pyridin-2-yl)amino)spiro[chro-man-2,1′-cyclobutan]-7-yl)propanoic acid], 7.24 nM.
